What is called IC50 is the midpoint of a concentration-inhibition curve. Read a high IC50 as lower potency.

For assay [1], the target named is T1, urate transporter 1 (URAT1) (Homo sapiens, UniProt Q96S37).
T1 construct: gene SLC22A12
T1 sequence (Q96S37 1-553): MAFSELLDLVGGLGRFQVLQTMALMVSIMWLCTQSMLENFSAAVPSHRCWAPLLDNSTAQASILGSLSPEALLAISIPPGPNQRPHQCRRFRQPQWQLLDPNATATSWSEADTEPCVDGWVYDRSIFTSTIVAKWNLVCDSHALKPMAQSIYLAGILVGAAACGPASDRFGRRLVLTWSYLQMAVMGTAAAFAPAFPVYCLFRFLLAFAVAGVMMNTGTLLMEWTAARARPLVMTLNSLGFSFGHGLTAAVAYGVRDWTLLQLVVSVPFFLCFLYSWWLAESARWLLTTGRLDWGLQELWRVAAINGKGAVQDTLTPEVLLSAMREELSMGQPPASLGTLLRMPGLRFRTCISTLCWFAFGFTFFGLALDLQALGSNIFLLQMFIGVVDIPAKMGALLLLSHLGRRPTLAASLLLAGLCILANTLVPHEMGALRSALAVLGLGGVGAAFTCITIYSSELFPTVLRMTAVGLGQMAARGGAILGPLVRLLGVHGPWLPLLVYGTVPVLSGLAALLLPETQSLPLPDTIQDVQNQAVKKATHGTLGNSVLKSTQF
Description: non-isotopic uric acid uptake inhibition in URAT1-overexpressing HEK293 cells (positive control drug). The format is cell-based.

Assay [2] concerns the target T2, xanthine oxidoreductase (XOR) (Bos taurus, UniProt P80457).
T2 construct: gene XDH

In assay [3] the target is T1, urate transporter 1 (URAT1). Description: non-isotopic uric acid uptake inhibition in URAT1-overexpressing HEK293 cells. In kind it is cell-based.

T2 sequence (P80457 2-1332): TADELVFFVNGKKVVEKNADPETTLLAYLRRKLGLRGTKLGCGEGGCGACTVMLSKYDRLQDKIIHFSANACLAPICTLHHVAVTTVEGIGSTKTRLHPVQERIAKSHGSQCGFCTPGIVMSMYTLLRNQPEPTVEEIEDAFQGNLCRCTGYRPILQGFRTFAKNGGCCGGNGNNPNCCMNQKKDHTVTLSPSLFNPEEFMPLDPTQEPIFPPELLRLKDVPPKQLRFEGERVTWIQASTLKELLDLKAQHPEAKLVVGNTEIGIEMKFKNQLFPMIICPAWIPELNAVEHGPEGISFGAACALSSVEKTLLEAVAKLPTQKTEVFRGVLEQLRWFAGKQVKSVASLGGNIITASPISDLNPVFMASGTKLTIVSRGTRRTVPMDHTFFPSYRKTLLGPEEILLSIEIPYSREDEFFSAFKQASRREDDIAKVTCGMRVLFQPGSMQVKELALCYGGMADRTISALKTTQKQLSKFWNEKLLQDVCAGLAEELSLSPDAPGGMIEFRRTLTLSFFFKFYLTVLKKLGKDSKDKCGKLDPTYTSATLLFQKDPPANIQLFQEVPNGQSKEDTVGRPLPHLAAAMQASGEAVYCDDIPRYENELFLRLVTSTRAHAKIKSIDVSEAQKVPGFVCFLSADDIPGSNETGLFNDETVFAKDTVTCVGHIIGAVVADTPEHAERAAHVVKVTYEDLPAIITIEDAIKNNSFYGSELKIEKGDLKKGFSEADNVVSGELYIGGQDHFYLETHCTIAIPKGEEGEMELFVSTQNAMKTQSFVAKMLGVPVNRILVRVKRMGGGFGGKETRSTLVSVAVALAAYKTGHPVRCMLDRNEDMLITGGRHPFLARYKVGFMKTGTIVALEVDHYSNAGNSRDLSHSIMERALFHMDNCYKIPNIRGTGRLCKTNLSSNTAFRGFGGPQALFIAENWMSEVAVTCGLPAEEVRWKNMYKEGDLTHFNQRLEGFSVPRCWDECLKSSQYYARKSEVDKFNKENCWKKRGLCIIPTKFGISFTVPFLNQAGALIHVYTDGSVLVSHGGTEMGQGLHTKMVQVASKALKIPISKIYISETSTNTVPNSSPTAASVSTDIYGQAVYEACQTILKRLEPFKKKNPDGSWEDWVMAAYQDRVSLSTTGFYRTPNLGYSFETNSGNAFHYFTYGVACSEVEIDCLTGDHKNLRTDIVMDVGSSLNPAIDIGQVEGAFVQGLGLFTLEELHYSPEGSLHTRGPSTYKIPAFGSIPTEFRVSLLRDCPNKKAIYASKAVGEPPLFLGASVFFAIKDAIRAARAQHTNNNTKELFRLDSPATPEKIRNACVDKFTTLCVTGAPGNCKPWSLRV

On to `O=C(O)C1(Sc2ccnc3ccc(Br)cc23)CCC1` [SHR4640], for which half-maximal inhibition in assay [1] (IC50) required 0.13 µM.

As to `Cc1nc(-c2ccc(OCC(C)C)c(C#N)c2)sc1C(=O)O` [febuxostat], the “% inhibition at 0.1 μM” value in assay [2] worked out at 94.8.

`O=C(O)C1(Sc2ccccc2N2CCOc3ccccc32)CCC1` [CC18002]: the midpoint of inhibition in assay [3], the IC50, lay at 1.69 µM.

For the origin of these results see paper PMC10893275, “A System for Discovering Novel Uricosurics Targeting Urate Transporter 1 Based on In Vitro and In Vivo Modeling” (Pharmaceutics, 2024).
